This experiment in a line: Cytotoxicity against human NCI60 cells. The experiment is classed as functional.

Compound `CC1(C)CC(C23C=CC(CO)(CC2)OO3)CCC1Br` (mixture of isomers) [MAJAPOLENE A] came in with a GI50 of 400 nM and a concentration for total growth inhibition (TGI) of 900 nM. Moreover, the CC50 (read-out: LC50 (the source's name)) stood at 2800 nM.

These data come from ChEMBL document CHEMBL1150097, “Majapolene A, a cytotoxic peroxide, and related sesquiterpenes from the red alga Laurencia majuscula” (1995).
